Reference: patent US7405235B2, “Transcription factor modulating compounds and methods of use thereof” (Paratek Pharmaceuticals, Inc., priority 2001, dated 2008)

Biological target: MarA (Escherichia coli, UniProt P0ACH5)
Experiment: MarA-activated selective marker (ccdB) cell survival assay, Example 2
Type: cell-based
Set-up: key: * indicates good inhibition of MarA; ** indicates very good inhibition of MarA
Conditions: inhibition of MarA: cell survival under conditions of MarA expression (ccdB under MarA-activated promoter)
Excerpt: In the absence of Mar A, the expression of the selective marker would be silent. For example, in the case of regulation of the cytotoxic gene ccdB, the gene would be silent and the cells would survive. Synthesis of MarA from an inducible plasmid in a suitable host would result in the activation of the MarA responsive activatable promoter and expression of the selective marker. In the case of ccdB, the gene would be expressed and result in cell death. Compounds that inhibit MarA would be identified as those that permit cell survival under conditions of MarA expression.
In the absence of MarA, the expression of the selective marker is silent and cells survive. Synthesis of MarA from an inducible plasmid in a bacterial or yeast cell leads to the activation of the inaA promoter, expression of ccdB, and subsequently results in cell death. Compounds that inhibit MarA are those that permit cell survival under conditions of MarA expression. In Table 4, * indicates good inhibition of MarA and ** indicates very good inhibition of MarA.

Chain of MarA (P0ACH5 whole entry, looked up): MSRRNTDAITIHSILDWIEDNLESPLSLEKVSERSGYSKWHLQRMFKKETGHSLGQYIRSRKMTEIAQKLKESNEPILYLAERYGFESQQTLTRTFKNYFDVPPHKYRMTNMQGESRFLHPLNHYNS

Row | Structure (SMILES) | MarA inhibition class
1 | O=c1cc(-c2ccc(F)cc2)oc2ccccc12 [BE, 2-(4-fluorophenyl)-4H-chromen-4-one] | *
2 | O=c1cc(-c2ccc(O)cc2)oc2ccccc12 [BG, 2-(4-hydroxyphenyl)-4H-chromen-4-one] | *
3 | Cc1ccc(COn2c(-c3ccccc3)nc3ccc([N+](=O)[O-])cc32)cc1 [AJ, 1-(4-Methyl-benzyloxy)-6-nitro-2-phenyl-1H-benzoimidazole] | *
4 | CSc1cccc(NC(=O)CSc2nnc(-c3ccc4nonc4c3)n2C)c1 [AE, 2-(5-Benzo[1,2,5]oxadiazol-5-yl-4-methyl-4H-[1,2,4]triazol-3-ylsulfanyl)-N-(3-methylsulfanyl-phenyl)-acetamide] | *
5 | CCOC(=O)C1=C(C)N=c2sc(=Cc3ccc(-c4ccc([N+](=O)[O-])cc4C)o3)c(=O)n2C1c1ccc2c(c1)OCO2 (centres unmarked) [P, 5-Benzo[1,3]dioxol-5-yl-7-methyl-2-[5-(2-methyl-4-nitro-phenyl)-furan-2-ylmethylene]-3-oxo-2,3-dihydro-5H-thiazolo[3,2-a]pyrimidine-6-carboxylicacid ethyl ester] | *
6 | O=c1cc(-c2ccccc2)oc2ccc(F)cc12 [AZ, 6-fluoro-2-phenyl-4H-chromen-4-one] | **
7 | O=[N+]([O-])c1ccc2nc(-c3ccccc3)n(OCc3ccccc3)c2c1 [AI, 1-Benzyloxy-6-nitro-2-phenyl-1H-benzoimidazole] | **
8 | CCOC(=O)C1=C(C)N=c2sc(=Cc3ccc(-c4cccc(C(=O)O)c4)o3)c(=O)n2C1c1c(OC)ccc2ccccc12 (centres unmarked) [N, 2-[5-(3-Carboxy-phenyl)-furan-2-ylmethylene]-5-(2-methoxy-naphthalen-1-yl)-7-methyl-3-oxo-2,3-dihydro-5H-thiazolo[3,2-a]pyrimidine-6-carboxylicacid ethyl ester] | **
9 | c1ccc(CSc2ncc(-c3nnnn3-c3ccccc3)c(-c3ccccc3)n2)cc1 [AY, 2-(benzylthio)-4-phenyl-5-(1-phenyl-1H-1,2,3,4-tetrazol-5-yl)pyrimidine] | **
10 | CSc1nnc2c(n1)OC(c1ccc(I)o1)Nc1ccccc1-2 (centres unmarked) [A, 6-(5-Iodo-furan-2-yl)-3-methylsulfanyl-6,7-dihydro-5-oxa-1,2,4,7-tetraaza-dibenzo[a,c]cycloheptene] | **
11 | N#Cc1c(-c2ccc3c(c2)OCO3)c(C#N)c2nc3ccccc3n2c1N [AB, 1-Amino-3-benzo[1,3]dioxol-5-yl-benzo[4,5]imidazo[1,2-a]pyridine-2,4-dicarbonitrile] | **
12 | C=CCOc1ccc(C2Nc3ccccc3-c3nnc(SCCCC)nc3O2)cc1 (centres unmarked) [I, 6-(4-Allyloxy-phenyl)-3-butylsulfanyl-6,7-dihydro-5-oxa-1,2,4,7-tetraaza-dibenzo[a,c]cycloheptene] | **
13 | CCCSc1nnc2c(n1)OC(c1ccc(OC)cc1)Nc1ccccc1-2 (centres unmarked) [K, 6-(4-Methoxy-phenyl)-3-propylsulfanyl-6,7-dihydro-5-oxa-1,2,4,7-tetraaza-dibenzo[a,c]cycloheptene] | *
14 | CSc1nnc2c(n1)OC(c1ccc(-c3ccc([N+](=O)[O-])cc3)o1)Nc1ccccc1-2 (centres unmarked) [D, 3-Methylsulfanyl-6-[5-(4-nitro-phenyl)-furan-2-yl]-6,7-dihydro-5-oxa-1,2,4,7-tetraaza-dibenzo[a,c]cycloheptene] | *
15 | CCSc1nnc2c(n1)OC(c1ccc(O)c(O)c1)Nc1ccccc1-2 (centres unmarked) [E, 4-(3-Ethylsulfanyl-6,7-dihydro-5-oxa-1,2,4,7-tetraza-dibenzo[a,c]cyclohepten-6-yl)-benzene-1,2-diol] | *
16 | CCCSc1nnc2c(n1)OC(c1ccc(-c3cccc([N+](=O)[O-])c3)o1)Nc1ccccc1-2 (centres unmarked) [L, 6-[5-(3-Nitro-phenyl)-furan-2-yl]-3-propylsulfanyl-6,7-dihydro-5-oxa-1,2,4,7-tetraaza-dibenzo[a,c]cycloheptane] | **
17 | CCCCSc1nnc2c(n1)OC(c1ccc(OC)cc1OC)Nc1ccccc1-2 (centres unmarked) [H, 3-Butylsulfanyl-6-(2,4-dimeethoxy-phenyl)-6,7-dihydro-5-oxa-1,2,4,7-tetraaza-dibenzo[a,c]cycloheptene] | *
18 | COc1ccc2c(=O)cc(-c3ccccc3)oc2c1 [BA, 7-methoxy-2-phenyl-4H-chromen-4-one] | *
19 | COn1c(-c2ccc(C)cc2)nc2ncccc21 [BF, 1-methoxy-2-(4-methylphenyl)-1H-imidazo[4,5-b]pyridine] | *

Row | Structure (SMILES) | MarA inhibition class
20 | CCOC(=O)C1=C(C)N=c2sc(=Cc3ccc(-c4cccc(C(=O)O)c4)o3)c(=O)n2C1c1ccc(N(C)C)cc1 (centres unmarked) [W, 2-[5-(3-Carboxy-phenyl)-furan-2-ylmethylene]-5-(4-dimethylamino-phenyl)-7-methyl-3-oxo-2,3-dihydro-5H-thiazolo[3,2-a]pyrimidine-6-carboxylicacid ethyl ester] | **
21 | Cc1cc2nc3s/c(=C/c4c[nH]nc4-c4ccccc4)c(=O)n3c2cc1C [AD, 6,7-Dimethyl-2-(3-phenyl-1H-pyrazol-4-ylmethylene)-benzo[4,5]imidazo[2,1-b]thiazol-3-one] | *
22 | CCCCSc1nnc2c(n1)OC(c1ccc(OCC)cc1)Nc1ccccc1-2 (centres unmarked) [J, 3-Butylsulfanyl-6-(4-ethoxy-phenyl)-6,7-dihydro-5-oxa-1,2,4,7-tetraaza-dibenzo[a,c]cycloheptene] | *
23 | O=C1C(=C2NC(c3ccccn3)C3C(=O)N(c4ccccc4)C(=O)C23)C(=O)c2ccccc21 (centres unmarked) [AF, 4-(1,3-Dioxo-indan-2-ylidene)-2-phenyl-6-pyridin-2-yl-tetrahydro-pyrrolo[3,4-c]pyrrole-1,3-dione] | **
24 | CCCSc1nnc2c(n1)OC(c1ccc(OCc3ccccc3)cc1)Nc1ccccc1-2 (centres unmarked) [F, 6-(4-Benzyloxy-phenyl)-3-propylsulfanyl-6,7-dihydro-5-oxa-1,2,4,7-tetraaza-dibenzo[a,c]cycloheptene] | **
25 | O=c1/c(=C\c2c[nH]nc2-c2ccccc2)sc2nc3ccccc3n12 [M, 2-(3-Phenyl-1H-pyrazol-4-ylmethylene)-benzo[4,5]imidazo[2,1-b]thiazol-3-one] | **
26 | O=C1C=Cc2ccccc2/C1=N/Oc1ccc2noc3c2c1C(=O)c1ccccc1-3 [Z, [1,2]Naphthoquinone 1-[O-(6-oxo-6H-anthra[1,9-cd]isoxazol-5-yl)-oxime]] | *
27 | O=C(O)COn1c(-c2ccccc2)nc2ccc([N+](=O)[O-])cc21 [AH, (6-Nitro-2-phenyl-benzoimidazol-1-yloxy)-acetic acid] | **
28 | CCOC(=O)C1=C(C)N=c2sc(=Cc3ccc(-c4ccc(C)c([N+](=O)[O-])c4)o3)c(=O)n2C1c1ccc(N(C)C)cc1 (centres unmarked) [X, 5-(4-Dimethylamino-phenyl)-7-methyl-2-[5-(4-methyl-3-nitro-phenyl)-furan-2-ylmethylene]-3-oxo-2,3-dihydro-5H-thiazolo[3,2-a]pyrimidine-6-carboxylicacid ethyl ester] | **
29 | O=C(O)COn1c(-c2ccccc2)nc2ccc([N+](=O)[O-])cc21 [BD, 2-[(6-nitro-2-phenyl-1H-1,3-benzimidazol-1-yl)oxy]acetic acid] | *
30 | c1ccc(COn2c(-c3ccccc3)nc3ncccc32)cc1 [AX, 1-(benzyloxy)-2-phenyl-1H-imidazo[4,5-b]pyridine] | **
31 | Cn1c(=O)c2c3oc(-c4ccc([N+](=O)[O-])cc4)nc3c(=O)n(-c3ccccc3)c2n(C)c1=O [AK, 6,8-Dimethyl-2-(4-nitro-phenyl)-5-phenyl-5H,6H-1-oxa-3,5,6,8-tetraaza-cyclopenta[a]naphthalene-4,7,9-trione] | **
32 | CCOC(=O)C1=C(C)N=c2s/c(=C/c3ccc(-c4cccc(C(F)(F)F)c4)o3)c(=O)n2C1c1ccccc1 (centres unmarked) [U, 7-Methyl-3-oxo-5-phenyl-2-[5-(3-trifluoromethyl-phenyl)-furan-2-ylmethylene]-2,3-dihydro-5H-thiazolo[3,2-a]pyrimidine-6-carboxylicacid ethyl ester] | **
33 | O=[N+]([O-])c1ccc2nc(-c3ccccc3)n(OCc3cccc(C(F)(F)F)c3)c2c1 [AG, 6-Nitro-2-phenyl-1-(3-trifluoromethyl-benzyloxy)-1H-benzoimidazole] | **
34 | COC(=O)c1ccccc1NC(=O)CSc1nnc(-c2ccco2)n1-c1ccccc1 [AC, 2-[2-(5-Furan-2-yl-4-phenyl-4H-[1,2,4]triazol-3-ylsulfanyl)-acetylamino]-benzoic acid methyl ester] | *
35 | CCOc1ccc(C2Nc3ccccc3-c3nnc(SC)nc3O2)cc1 (centres unmarked) [B, 6-(4-Ethoxy-phenyl)-3-methylsulfanyl-6,7-dihydro-5-oxa-1,2,4,7-tetraaza-dibenzo[a,c]cycloheptene] | *
36 | CSc1nnc2c(n1)OC(c1ccc([N+](=O)[O-])o1)Nc1ccccc1-2 (centres unmarked) [C, 3-Methylsulfanyl-6-(5-nitro-furan-2-yl)-6,7-dihydro-5-oxa-1,2,4,7-tetraaza-dibenzo[a,c]cycloheptene] | *
37 | CN(C)c1ccc(-c2cc(=O)c3ccccc3o2)cc1 [AW, 2-[4-(dimethylamino)phenyl]-4H-chromen-4-one] | **
38 | Cc1ccc(-c2nc3c(=O)n(-c4ccccc4)c4c(c(=O)n(C)c(=O)n4C)c3o2)cc1 [AL, 6,8-Dimethyl-5-phenyl-2-p-tolyl-5H,6H-1-oxa-3,5,6,8-tetraaza-cyclopenta[a]naphthalene-4,7,9-trione] | *
